Measured values: patent US20070254903A1, “Novel Spiroindoline or Spiroisoquinoline Compounds, Methods of Use and Compositions Thereof” (ARENA PHARMACEUTICALS, INC., priority 2003, published 2007)

Molecular target: T1, human Mas receptor (Homo sapiens, UniProt P04201)
T1 construct: expressed in transfected cells
T1 sequence (P04201 1-325): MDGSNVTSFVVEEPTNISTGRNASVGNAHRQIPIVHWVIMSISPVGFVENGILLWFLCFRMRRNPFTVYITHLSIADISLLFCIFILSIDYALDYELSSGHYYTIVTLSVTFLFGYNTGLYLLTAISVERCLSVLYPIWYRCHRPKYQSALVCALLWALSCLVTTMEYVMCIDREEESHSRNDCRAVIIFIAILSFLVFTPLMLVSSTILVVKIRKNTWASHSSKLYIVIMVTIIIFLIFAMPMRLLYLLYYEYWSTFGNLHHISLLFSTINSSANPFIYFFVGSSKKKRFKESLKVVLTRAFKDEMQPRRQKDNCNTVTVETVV
Experiment: Mas receptor IP3 assay (inverse agonist assay)
Assay type: cell-based
Conditions: HEK293 cells over-expressing human Mas receptor; average from several experiments
Procedure: The Mas receptor IP3 assay was performed using a mammalian cell line (HEK293) which was transfected with a plasmid containing the human Mas receptor and selected for stable expression of the receptor. For the inverse agonist assay, higher levels of Mas receptor constitutive activity were desired. To achieve this, Mas receptor expression levels were increased by transiently transfecting the same Mas receptor stable cell line with additional human Mas receptor plasmid DNA following standard procedures. These cells were used in the Mas receptor IP3 assay approximately 24 hours post-transfection.
Cells were split into 96-well plates (50,000 cells/well) and allowed to attach for a period of 6 hours. The growth medium was then replaced with medium supplemented with 4 μCi/ml [^3H]myo-inositol (100 μl; Perkin Elmer Life Sciences) and the cells were allowed to incubate for approximately 20 hours. Test compounds were serially diluted in inositol-free media containing 10 mM LiCl. The media in the plates was removed by aspiration, replaced with these test compound solutions and incubated at 37° C. for 1 hour. Following this incubation, the media was removed by aspiration and replaced with buffer containing 0.1M formic acid. The plates were then frozen overnight at −80° C. to achieve complete cell lysis.
The following day, the assay plates were thawed at room temperature. The thawed contents were then transfered to 96-well filter plates (Millipore, Multiscreen) pre-loaded with resin (Biorad, AG1-X8 100-200 mesh, formate form). The plate was filtered using a vacuum manifold and the resin was washed multiple times with water. An elution buffer was then applied (200 μl, 0.2M Ammonium formate/0.1M formic acid) and the resulting eluent was collected, under vacuum, in a 96-well collection plate. Aliquots of the eluent (80 μl) were transferred to filter plates (Whatman, Unifilter GF/C) and dried in a 45° C. oven overnight. Dried plates were counted on a scintillation counter following the addition of an appropriate scintillant (Perkin Elmer Life Sciences, Optiphase Supermix or Hi-Safe 3).

SMILES	IC50 [µM]
C=CCN1CCC2(CC1)CN(C(=O)c1ccc(Br)s1)c1ccc(F)cc12 [Compound 223, 1′-(allyl)-1,2-dihydro-5-fluoro-1-(5-bromo-thiophene-2-carbonyl)-spiro[3H-indole-3,4′-piperidine]]	0.307
C=CCN1CCC2(CC1)CN(S(=O)(=O)c1ccccc1F)c1ccc(F)cc12 [Compound 229, 1′-(allyl)-1,2-dihydro-5-fluoro-1-(2-fluoro-benzenesulfonyl)-spiro[3H-indole-3,4′-piperidine]]	0.846
